Test results from patent US20140249105A1, “NOVEL CERAMIDE ANALOGUES, PROCESSES FOR PREPARING SAME AND USES THEREOF” (Diverchim, priority 2011, published 2014).

Legend:
Format in all cases: cell-based
[1] = system: Normal human epidermal keratinocytes (NHEK); assay: Proliferation and/or migration of keratinocytes, artificial wound coverage; settings: percentage coverage at 48 h
Experimental: The phases of migration and proliferation of cells are major phases of healing that occur after the inflammation phase and are necessary for recolonization of the wound. An increase in the migration and proliferation of cells allows an improvement in healing. • Biological model: Normal human epidermal keratinocytes (NHEK) • Culture conditions: 37° C., 5% CO2 • Culture medium: Keratinocyte-SFM-PE-EGF (keratinocyte culture medium—serum free medium (SFM) without pituitary extract (PE) and without Epidermal Growth Factor (EGF) • Conditions: • Control (n=6) • Reference: EGF (Epidermal Growth Factor) at 10 ng/ml (n=2) • compounds tested (n=2) • Incubation: 72 hours • Assay: Normal human keratinocytes were seeded on 96-well plates suitable for the migration studies. In these plates, the substrates were pretreated with a solution of collagen and a mask was placed at the centre of each well, preventing adhesion of the cells in this zone and thus forming an artificial wound. After labelling the cells with calcein, the masks were removed and then the cells were treated with the compounds or the reference. The migration of the cells was monitored microscopically for 72 hours, taking photographs at 0 h, 24 h, 48 h and 72 h. The results are expressed in percentage coverage and compared with the untreated control.

[2] = target: T1, tyrosinase (DOPA oxidase) (Homo sapiens, UniProt P14679); assay: Screening of anti-tyrosinase activity: DOPA oxidase reaction on separated epidermis, count of DOPA positive melanocytes per mm2; settings: for Variation/control: DOPA positive melanocyte count per mm2 vs DOPA control, product at 30 μg/mL in DMSO
T1 construct: from tissue; host or cells: separated human epidermis from a frozen abdominoplasty (melanocytes in situ)
T1 sequence (P14679 19-529): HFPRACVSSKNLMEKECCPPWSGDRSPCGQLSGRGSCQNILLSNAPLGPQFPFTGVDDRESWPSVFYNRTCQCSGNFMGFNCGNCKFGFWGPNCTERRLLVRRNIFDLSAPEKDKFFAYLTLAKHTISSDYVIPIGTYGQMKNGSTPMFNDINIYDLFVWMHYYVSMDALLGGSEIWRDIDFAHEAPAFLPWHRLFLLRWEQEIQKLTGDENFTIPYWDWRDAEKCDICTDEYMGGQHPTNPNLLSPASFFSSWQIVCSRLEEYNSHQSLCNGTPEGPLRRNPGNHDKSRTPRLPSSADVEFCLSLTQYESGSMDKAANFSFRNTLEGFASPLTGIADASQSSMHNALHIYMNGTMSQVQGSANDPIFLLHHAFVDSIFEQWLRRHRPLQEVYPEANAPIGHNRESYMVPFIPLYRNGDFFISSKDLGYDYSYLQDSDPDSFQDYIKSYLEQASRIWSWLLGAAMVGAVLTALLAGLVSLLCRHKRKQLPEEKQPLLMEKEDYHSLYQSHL
Experimental: The products are tested in solution at 30 μg/mL in DMSO. Epidermis samples originating from a frozen abdominoplasty (person) were separated by incubation in 2N NaBr for 1.0 h at 37° C. They were then fixed in a buffered formolized fixing agent, rinsed and put in contact with the volume/volume mixture: solutions of L-DOPA/test formulation. After incubation, they were rinsed and mounted between slide and cover slip with mounting liquid of the Aquatex type. Observation was by optical microscopy with ×10 objective. Images were obtained with a tri CCD Sony DXC […] camera and stored using the Leica IM1000 data archiving software. For each batch, several microscope fields were analysed using the LEICA QWin image analysis software. For each field, the DOPA positive melanocytes were counted and the area of the zone was measured to determine the melanocyte count per mm^2.

[3] = system: B16 melanocytes; assay: Viability of the cells, test of reduction of MTT; settings: 72 h
Experimental: (§1) Melanocytes were seeded on a 96-well plate and cultured for 24 h (37° C., 5% CO2, DMEM 1 g/L glucose without phenol red supplemented with glucose 3 g/L, L-glutamine 2 mM, penicillin 50 U/mL, streptomycin 50 μg/mL, fetal calf serum (FCS) 10%). […] Each experimental condition was carried out with n=3, apart from the controls carried out with n=6. The cells were then incubated for 72 h. Wells without cells received in parallel the same quantities of medium, supplemented or not with NDP-MSH and with or without the test compounds or the reference in order to quantify the background noise associated with the presence of the compounds.
At the end of the treatment, the cells were incubated in the presence of MTT (3-(4,5-dimethylthiazol-2-yl)-2,5-diphenyl tetrazolium bromide), the conversion of which to blue crystals of formazan is proportional to the activity of succinate dehydrogenase (mitochondrial enzyme). After disruption of the cells, the formazan was dissolved in DMSO medium and the optical density (OD), representative of the number of live cells and of their metabolic reactivity, was measured with a microplate reader at 540 nm (VERSAmax, Molecular Devices).

[4] = system: B16 melanocytes; assay: Screening of anti-melanogenesis activity: melanin assay in B16 melanocytes stimulated with NDP-MSH; settings: 72 h
Experimental: This was carried out for compounds in solution in DMSO. The synthesis of melanin was measured in a model of B16 melanocytes stimulated with a stable derivative of α-MSH (natural hormone that stimulates melanogenesis: Melanocyte Stimulating Hormone): NDP-MSH ([Nle^4, DPhe7]-α-MSH).
as §1
At the end of 72 hours of incubation, the total melanin (intra- and extracellular) was quantified by measuring the absorbance of each sample at 405 nm (direct reading of the culture plates) against a standard range of melanin (melanin concentrations tested from 0.78 to 100 μg/mL). The background noise, measured in the wells without cells, was subtracted from the values measured so that only the effect connected with the production of melanin is taken into account, without including any interference connected with the presence of the compounds. The results were expressed in percentage of melanin relative to the control as well as in percentage inhibition.

[5] = Melanocyte, 30 μM, read-out: Normalized data inhibition (%)
[6] = Melanocyte, 100 μM, read-out: Normalized data inhibition (%)

## CCCCCCCCCCC/C=C/C(=O)N[C@H]1CCC[C@H]1NC(=O)/C=C/CCCCCCCCCCC [c79]
[1]; 1 μM
  % control 48 h: 141 % control
[2]
  Variation/control: −45

## O=C(/C=C/CCCCCCCCCCCCCCO)N[C@H]1C[C@@H]1NC(=O)/C=C/CCCCCCCCCCCCCCO (relative stereo) [c93]
[2]
  Variation/control: −48

## O=C(N[C@H]1CCC[C@H]1NC(=O)/C(F)=C/CCCCCCCO)/C(F)=C/CCCCCCCO [c45]
[1]; 3 μM
  % control 48 h: 145 % control

## O=C(O)/C=C/CCCCCCCCCCCO [Ref 3, (E)-14-Hydroxy-tetradec-2-enoic acid, reference compound]
[2]
  Variation/control: −15

## O=C(O)/C=C/CCCCCCCCCCCCO [Ref 5, (E)-15-Hydroxy-pentadec-2-enoic acid, reference compound]
[2]
  Variation/control: −29

## O=C(N[C@H]1C[C@H]1NC(=O)C(F)=CCCCCCCCO)C(F)=CCCCCCCCO [c36]
[1]; 3 μM
  % control 48 h: 154 % control

## O=C(O)/C=C/CCCCCCCCCO [Ref 6, (E)-12-Hydroxy-dodec-2-enoic acid, reference compound]
[2]
  Variation/control: −24

## O=C(NC1CCCC1NC(=O)C(F)=CCCCCCCCCCCCCCCO)C(F)=CCCCCCCCCCCCCCCO (stereo not shown) [c53]
[1]; 3 μM
  % control 48 h: 137 % control

## O=C(O)C(F)=CCCCCCCCCCCCO [Ref 4, 2-Fluoro-14-hydroxy-tetradec-2-enoic acid, reference compound]
[3]; 30 μM
  Viability (MTT) % stimulated control: 114 % stimulated control
[3]; 100 μM
  Viability (MTT) % stimulated control: 95 % stimulated control
[4]; [5]
  inhibition at 30 µM: 0%
[4]; [6]
  inhibition at 100 µM: 0%
[2]
  Variation/control: −36

## CCCCCCCCC=CCCCCCCCC(=O)NC1CCCC1NC(=O)CCCCCCCC=CCCCCCCCC (stereo not shown) [c127]
[2]
  Variation/control: −45

## O=c1cc(CO)occ1O [Kojic acid, reference compound]
[3]; 25 μg/mL
  Viability (MTT) % stimulated control: 103 % stimulated control
[3]; 100 μg/mL
  Viability (MTT) % stimulated control: 99 % stimulated control
[3]; 400 μg/mL
  Viability (MTT) % stimulated control: 96 % stimulated control
[4]; Melanocyte, 25 μg/mL, read-out: Normalized data inhibition (%)
  inhibition at 25 µg/mL: 59%
[4]; Melanocyte, 100 μg/mL, read-out: Normalized data inhibition (%)
  inhibition at 100 µg/mL: 83%
[4]; Melanocyte, 400 μg/mL, read-out: Normalized data inhibition (%)
  inhibition at 400 µg/mL: 93%

## O=C(O)/C=C/CCCCCCCCCCCCCCCO [Ref 1, (E)-18-Hydroxy-octadec-2-enoic acid, reference compound]
[3]; mouse, 30 μM
  Viability (MTT) % stimulated control: 79 % stimulated control
[3]; mouse, 100 μM
  Viability (MTT) % stimulated control: 63 % stimulated control
[4]; [5]
  inhibition at 30 µM: 0%
[4]; [6]
  inhibition at 100 µM: 115%
[2]
  Variation/control: −16

## O=C(N[C@@H]1CC[C@H](NC(=O)/C(F)=C\CCCCCCCOC2CCCCO2)C1)/C(F)=C\CCCCCCCOC1CCCCO1 (stereo partly shown) [c70]
[3]; 30 μM
  Viability (MTT) % stimulated control: 90 % stimulated control
[3]; 100 μM
  Viability (MTT) % stimulated control: 86 % stimulated control
[4]; 30 μM
  Normalized data inhibition (%): 115%
[4]; 100 μM
  Normalized data inhibition (%): 116%

## O=C(N[C@H]1C[C@H]1NC(=O)C(F)=CCCCCCCCCCCCCCCCO)C(F)=CCCCCCCCCCCCCCCCO [c44]
[3]; 1 μM
  Viability (MTT) % stimulated control: 87 % stimulated control
[3]; 3 μM
  Viability (MTT) % stimulated control: 88 % stimulated control
[3]; 10 μM
  Viability (MTT) % stimulated control: 91 % stimulated control
[4]; 1 μM
  Normalized data inhibition (%): −11%
[4]; 3 μM
  Normalized data inhibition (%): 36%
[4]; 10 μM
  Normalized data inhibition (%): 69%

## O=C(NC1CCC(NC(=O)C(F)=CCCCCCOC2CCCCO2)C1)C(F)=CCCCCCOC1CCCCO1 (stereo not shown) [c8]
[3]; 30 μM
  Viability (MTT) % stimulated control: 86 % stimulated control
[3]; 100 μM
  Viability (MTT) % stimulated control: 77 % stimulated control
[4]; 30 μM
  Normalized data inhibition (%): 86%
[4]; 100 μM
  Normalized data inhibition (%): 115%

## O=C(/C=C/CCCCCCCCCCCO)N[C@H]1CCC[C@H]1NC(=O)/C=C/CCCCCCCCCCCO [c17]
[1]; 1 μM
  % control 48 h: 141 % control

## O=C(NC1CCC(NC(=O)C(F)=CCCCCCCCCO)C1)C(F)=CCCCCCCCCO (mixture of isomers) [c59]
[3]; 1 μM
  Viability (MTT) % stimulated control: 108 % stimulated control
[3]; 3 μM
  Viability (MTT) % stimulated control: 90 % stimulated control
[3]; 10 μM
  Viability (MTT) % stimulated control: 88 % stimulated control
[3]; 30 μM
  Viability (MTT) % stimulated control: 82 % stimulated control
[3]; 100 μM
  Viability (MTT) % stimulated control: 2 % stimulated control
[4]; 1 μM
  Normalized data inhibition (%): 0%
[4]; 3 μM
  Normalized data inhibition (%): 9%
[4]; 10 μM
  Normalized data inhibition (%): 38%
[4]; 30 μM
  Normalized data inhibition (%): 71%
[4]; 100 μM
  Normalized data inhibition (%): 118%
[2]
  Variation/control: −56
[2]; vs ref 1
  effectiveness for limiting tyrosinase activity compared with reference compounds: more effective than the reference compounds

## O=C(N[C@@H]1CC[C@H](NC(=O)/C(F)=C/CCCCCCCCO)C1)/C(F)=C/CCCCCCCCO [c58]
[3]; 30 μM
  Viability (MTT) % stimulated control: 101 % stimulated control
[3]; 100 μM
  Viability (MTT) % stimulated control: 98 % stimulated control
[4]; 30 μM
  Normalized data inhibition (%): 62%
[4]; 100 μM
  Normalized data inhibition (%): 83%

## O=C(N[C@H]1CCC[C@H]1NC(=O)/C(F)=C\CCCCCCCOC1CCCCO1)/C(F)=C\CCCCCCCOC1CCCCO1 (stereo partly shown) [c67]
[3]; 30 μM
  Viability (MTT) % stimulated control: 71 % stimulated control
[3]; 100 μM
  Viability (MTT) % stimulated control: 81 % stimulated control
[4]; 30 μM
  Normalized data inhibition (%): 119%
[4]; 100 μM
  Normalized data inhibition (%): 116%
